One series has as its target hERG channel (IKr) (Homo sapiens (Human), UniProt Q12809). The series is described as follows: hERG test (whole cell patch clamp, IKr). It is filed as cell-based. The note with it: human, CHO cells expressing hERG channel, pH 7.4, 3 μM, tail peak current. An excerpt:
Test Example 10: hERG Test
For the purpose of assessing risk of an electrocardiogram QT interval prolongation of the compound of the present invention, effects of the compound of the present invention on delayed rectifier K+ current (IKr), which plays an important role in the ventricular repolarization process, was studied using CHO cells expressing human ether-a-go-go related gene (hERG) channel.
After a cell was retained at a membrane potential of −80 mV by whole cell patch clamp method using an automated patch clamp system (QPatch; Sophion Bioscience A/S) and gave a leak potential of −50 mV, IKr induced by depolarization pulse stimulation at +20 mV for 2 seconds and, further, repolarization pulse stimulation at −50 mV for 2 seconds, was recorded. After the generated current was stabilized, extracellular solution (NaCl: 145 mmol/L, KCl: 4 mmol/L, CaCl2): 2 mmol/L, MgCl2: 1 mmol/L, glucose: 10 mmol/L, HEPES (4-(2-hydroxyethyl)-1-piperazineethanesulfonic acid): 10 mmol/L, pH=7.4), in which the compound of the present invention had been dissolved at an objective concentration in the extracellular solution, was applied to the cell at room temperature for 7 minutes or more. From the recording IKr, an absolute value of the tail peak current was measured based on the current value at the resting membrane potential using analysis software (QPatch Assay software; Sophion Bioscience A/S). Further, the % inhibition of tail peak current for the compound of the present invention relative to the tail peak current after application of the solution (0.1% dimethyl sulfoxide solution) was calculated to assess influence of the compound of the present invention on IKr.
In general terms: hERG is a cardiac potassium channel; its block is linked to QT prolongation.

Series [1] deals with human recombinant dopamine D3 receptor (Homo sapiens (Human), UniProt P35462). The series is described as follows: Test of binding inhibition for dopamine D3 receptor ([3H]-Methylspiperone SPA). The note with it: Jump-In HEK cell membranes, 2 nM [3H]-Methylspiperone, 120 min at 25° C.; read-out: hD3_Ki. A digest of the protocol: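 SPA radioligand binding on Jump-In HEK membranes expressing human D3 receptor (4 µg/well) with 2 nM [3H]-methylspiperone (final), incubated 120 min at 25 °C. Non-specific binding defined with 10 µM butaclamol. Percent inhibition computed against total and non-specific binding; Ki from dose-response curves.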

The target of series [2] is human recombinant dopamine D2 receptor (Homo sapiens (Human), UniProt P14416). The series is described as follows: Test of binding inhibition for dopamine D2 receptor ([3H]-Methylspiperone SPA). The note with it: Jump-In HEK cell membranes, read-out: hD2_Ki. A digest of the protocol:
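Incubation was 120 min at 25° C. with human recombinant D2 membranes from Jump-In HEK cells (2 μg/well), WGA SPA beads (0.2 mg/well) and [3H]-Methylspiperone as radioligand.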

[3] abbreviates: 1.2 nM [3H]-Methylspiperone, 120 min at 25° C.

Consider 33 molecules from patent publication US11578084B2, “Condensed ring compounds having dopamine D3 receptor antagonistic effect” (Shionogi & Co., Ltd., priority 2018, dated 2023).

Like-named read-outs stand apart in the source and are kept apart here.

Chain of hERG channel (IKr) (Q12809 whole entry): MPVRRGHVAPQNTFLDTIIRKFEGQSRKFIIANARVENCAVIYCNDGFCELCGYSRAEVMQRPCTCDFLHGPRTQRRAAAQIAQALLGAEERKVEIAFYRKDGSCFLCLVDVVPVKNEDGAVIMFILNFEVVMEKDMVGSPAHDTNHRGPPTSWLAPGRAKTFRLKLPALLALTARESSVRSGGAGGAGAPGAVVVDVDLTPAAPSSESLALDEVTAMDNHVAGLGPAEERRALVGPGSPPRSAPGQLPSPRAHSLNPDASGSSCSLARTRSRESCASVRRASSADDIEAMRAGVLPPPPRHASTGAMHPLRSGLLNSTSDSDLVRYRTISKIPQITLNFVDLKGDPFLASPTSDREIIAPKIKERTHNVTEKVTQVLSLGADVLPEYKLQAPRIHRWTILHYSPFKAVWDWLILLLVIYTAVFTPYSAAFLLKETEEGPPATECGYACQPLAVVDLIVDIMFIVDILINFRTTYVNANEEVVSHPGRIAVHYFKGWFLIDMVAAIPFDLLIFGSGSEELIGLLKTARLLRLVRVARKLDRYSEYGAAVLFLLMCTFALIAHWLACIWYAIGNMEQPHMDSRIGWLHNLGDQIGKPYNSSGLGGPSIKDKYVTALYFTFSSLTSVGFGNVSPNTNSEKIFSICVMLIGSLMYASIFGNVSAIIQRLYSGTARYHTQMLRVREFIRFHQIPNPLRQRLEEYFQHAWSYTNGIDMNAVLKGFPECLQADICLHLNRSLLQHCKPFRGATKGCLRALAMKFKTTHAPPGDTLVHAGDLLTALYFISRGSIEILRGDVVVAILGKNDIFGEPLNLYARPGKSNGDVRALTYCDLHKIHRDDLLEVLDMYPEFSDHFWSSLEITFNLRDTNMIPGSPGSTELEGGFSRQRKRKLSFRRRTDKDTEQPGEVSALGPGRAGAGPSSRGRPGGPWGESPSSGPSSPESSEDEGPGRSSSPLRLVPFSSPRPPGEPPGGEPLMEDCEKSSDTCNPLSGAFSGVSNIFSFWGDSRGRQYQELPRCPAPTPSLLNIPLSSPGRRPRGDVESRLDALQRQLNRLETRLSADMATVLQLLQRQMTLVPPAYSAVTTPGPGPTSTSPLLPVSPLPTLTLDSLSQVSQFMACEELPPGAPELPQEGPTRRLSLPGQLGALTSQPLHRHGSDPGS
Chain of human recombinant dopamine D2 receptor (P14416 whole entry): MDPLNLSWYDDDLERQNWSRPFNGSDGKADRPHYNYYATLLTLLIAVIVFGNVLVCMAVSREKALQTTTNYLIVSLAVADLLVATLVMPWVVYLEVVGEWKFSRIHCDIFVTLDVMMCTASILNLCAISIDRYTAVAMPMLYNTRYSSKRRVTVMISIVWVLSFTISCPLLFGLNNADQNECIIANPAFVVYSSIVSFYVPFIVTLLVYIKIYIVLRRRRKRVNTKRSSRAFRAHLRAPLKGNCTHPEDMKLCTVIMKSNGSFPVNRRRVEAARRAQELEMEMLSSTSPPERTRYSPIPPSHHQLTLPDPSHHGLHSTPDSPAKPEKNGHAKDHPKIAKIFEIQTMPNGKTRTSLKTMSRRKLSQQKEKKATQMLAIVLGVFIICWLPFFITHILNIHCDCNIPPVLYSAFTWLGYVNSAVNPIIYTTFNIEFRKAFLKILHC
Chain of human recombinant dopamine D3 receptor (P35462 whole entry): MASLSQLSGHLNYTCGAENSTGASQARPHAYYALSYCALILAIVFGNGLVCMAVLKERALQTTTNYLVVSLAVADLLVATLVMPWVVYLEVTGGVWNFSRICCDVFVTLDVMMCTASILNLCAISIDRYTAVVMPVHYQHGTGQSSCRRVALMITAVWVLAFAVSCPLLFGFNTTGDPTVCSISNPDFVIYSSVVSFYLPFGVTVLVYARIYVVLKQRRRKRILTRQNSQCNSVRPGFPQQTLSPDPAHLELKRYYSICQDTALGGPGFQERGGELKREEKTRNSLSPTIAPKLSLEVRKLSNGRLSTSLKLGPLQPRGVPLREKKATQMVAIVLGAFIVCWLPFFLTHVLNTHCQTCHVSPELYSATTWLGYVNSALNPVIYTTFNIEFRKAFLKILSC

For orientation: inhibition means the relative decrease from the control value, in per cent. On to `Cc1ncc(/C=C/C(=O)N[C@H]2CC[C@H](CCN3CCc4nc(OC5CC(F)(F)C5)sc4CC3)CC2)cn1` [Example I-082], for which, at hERG channel (IKr), the inhibition at 3 µM came out at 11.1%. The Ki came to 0.086 nM in series [1] and 670 nM in series [2] (setting [3]).
For the molecule `Cc1cnc(CC(=O)N[C@H]2CC[C@H](CCN3CCc4sc(C5CC(F)(F)C5)nc4C3)CC2)o1` [Example I-041], at hERG channel (IKr), testing at 3 µM gave an inhibition of 18.1%. Moreover, the Ki in series [1] turned out to be 0.17 nM; in series [2] (setting [3]), 620 nM.
Taken in the same sequence, the figures for `Cc1ncccc1C(=O)N[C@H]1CC[C@H](CCN2CCc3nc(OC4CC(F)(F)C4)sc3CC2)CC1` [Example I-019] were 8.86%, 0.37 nM and above 1800 nM.
Taken in the same sequence, the figures for `Cn1c(C(=O)N[C@H]2CC[C@](F)(CCN3CCc4ccc(OCC(F)F)nc4CC3)CC2)cccc1=O` [Example I-029] were 8.37%, 0.36 nM and 610 nM.
At hERG channel (IKr), `Cc1nnc(CC(=O)N[C@H]2CC[C@H](CCN3CCc4nc(OC5CC(F)(F)C5)sc4CC3)CC2)o1` [Example I-020] registered an inhibition at 3 µM of 23.1%. Further, the Ki in series [1] was 0.27 nM; in series [2] (setting [3]), above 1800 nM.
Molecule `Cc1ncc(CC(=O)N[C@H]2CC[C@H](CCN3CCc4ccc(OC(C)C)nc4CC3)CC2)o1` [Example I-006] gave an inhibition at 3 µM on hERG channel (IKr) of 23%. For the same molecule, the Ki was 0.59 nM in series [1] and above 1900 nM in series [2] (setting [3]).
Taken in the same sequence, the figures for `Cc1cc(OCC(=O)N[C@H]2CC[C@H](CCN3CCc4nc(OC5CC(F)(F)C5)sc4CC3)CC2)no1` [Example I-022] were 32.6%, 0.1 nM and above 2300 nM.
Taken in the same sequence, the figures for `Cn1c(C(=O)N[C@H]2CC[C@](F)(CCN3CCc4nc(OCCC(F)(F)F)sc4CC3)CC2)cccc1=O` [Example I-113] were 6.89%, 0.87 nM and above 2200 nM.
On hERG channel (IKr), `Cn1cc(CC(=O)N[C@H]2CC[C@](F)(CCN3CCc4ccc(OC5CCC5)nc4CC3)CC2)cn1` [Example I-104] came in with an inhibition at 3 µM of 16.3%. Moreover, the Ki in series [1] was 0.68 nM; in series [2] (setting [3]), above 2300 nM.
The like results for `CN1Cc2c(C(=O)N[C@H]3CC[C@H](CCN4CCc5sc(OC6CC(F)(F)C6)nc5C4)CC3)cccc2C1=O` [Example I-001] were, in that order, 21.3%, 0.2 nM and 290 nM.
Taken in the same sequence, the figures for `O=C(N[C@H]1CC[C@H](CCN2CCc3nc(OCC(F)(F)F)sc3CC2)CC1)c1cccnc1C(F)F` [Example I-048] were 3.52%, 0.048 nM and 390 nM.
The like results for `Cn1cc(OCC(=O)N[C@H]2CC[C@](F)(CCN3CCc4nc(OCC(C)(F)F)sc4CC3)CC2)cn1` [Example I-075] were, in that order, 33.8%, 0.22 nM and 240 nM.
At hERG channel (IKr), `CC[C@@H](C)Oc1ccc2c(n1)CCN(CC[C@]1(F)CC[C@@H](NC(=O)Cc3nnc(C)s3)CC1)CC2` [Example I-109] displayed an inhibition at 3 µM of 27%. In addition, the Ki in series [1] worked out at 0.26 nM; in series [2] (setting [3]) it was 610 nM.
The like results for `CC(Oc1nc2c(s1)CCN(CC[C@H]1CC[C@H](NC(=O)c3cccc4nn(C)cc34)CC1)CC2)C(F)F` (single isomer, unassigned) [Example I-112] were, in that order, 23.5%, 0.12 nM and above 2200 nM.
Turning to `Cn1ncc(CC(=O)N[C@H]2CC[C@H](CCN3CCc4nc(OCC(C)(F)F)sc4CC3)CC2)n1` [I′-38], the inhibition at 3 µM on hERG channel (IKr) is 20.6%. Also, the Ki amounted to 0.043 nM in series [1] and 1000 nM in series [2] ([3H]-Methylspiperone 1.2 nM).
As for `Cc1ncccc1C(=O)N[C@H]1CC[C@H](CCN2CCc3nc(OCC(C)(F)F)sc3CC2)CC1` [Example I-034], on hERG channel (IKr), the inhibition at 3 µM was found to be 34.3%. For the same molecule, the Ki is 0.36 nM in series [1] and 560 nM in series [2] (setting [3]).
Regarding `Cc1nnc(CC(=O)N[C@H]2CC[C@H](CCN3CCc4nc(OCCC(F)(F)F)sc4CC3)CC2)o1` [Example I-100], the inhibition at 3 µM on hERG channel (IKr) was 33.9%. The Ki in series [1] amounted to 0.72 nM; in series [2] (setting [3]) it was 1500 nM.
The like results for `Cn1cc2c(C(=O)N[C@H]3CC[C@H](CCN4CCc5ccc(OCC(C)(C)F)nc5CC4)CC3)cccc2n1` [Example I-003] were, in that order, 31%, 0.15 nM and 780 nM.
Taken in the same sequence, the figures for `COc1cc(CC(=O)N[C@H]2CC[C@H](CCN3CCc4nc(OCC(C)(F)F)sc4CC3)OC2)on1` [Example I-010] were 32%, 0.13 nM and 930 nM.
For the molecule `Cc1ncc(CC(=O)N[C@H]2CC[C@H](CCN3CCc4ccc(OC5CCC5)nc4CC3)CC2)o1` [Example I-033], at 3 µM the inhibition on hERG channel (IKr) was 12.2%. In addition, the results for the Ki in series [1] and in series [2] (setting [3]) were 0.78 nM and above 2200 nM, respectively.
At hERG channel (IKr), `Cc1ncc(CC(=O)N[C@H]2CC[C@H](CCN3CCc4sc(OC5CC(F)(F)C5)nc4C3)CC2)o1` [Example I-002] gave an inhibition at 3 µM of 30.3%. Besides, the Ki in series [1] was 0.47 nM.
`Cc1ncc(CC(=O)NC2CC3CCC(C2)N3CCN2CCc3sc(OCC(F)(F)F)nc3C2)s1` (single isomer, unassigned) [Example I-134]: the Ki in series [1] was 0.17 nM; in series [2] (setting [3]), 300 nM.
In the case of `Cc1ncc(OCC(=O)N[C@H]2CC[C@H](CCN3CCc4nc(OCC(F)F)sc4CC3)CC2)cn1` [I′-54], the values for the Ki in series [1] and in series [2] ([3H]-Methylspiperone 1.2 nM) were 0.32 nM and 1600 nM, respectively.
Take `O=C(N[C@H]1CC[C@H](CCN2CCc3nc(OC4CC(F)(F)C4)sc3CC2)CC1)c1cccnc1C(F)F` [Example I-168]: the results for the Ki in series [1] and in series [2] (setting [3]) were 0.31 nM and 1000 nM, respectively.
As to `Cc1cc(CC(=O)N[C@H]2CC[C@](F)(CCN3CCc4ccc(CCC(F)(F)F)nc4CC3)CC2)on1` [III-3], the Ki was 0.029 nM in series [1] and above 2300 nM in series [2] (setting [3]).
Consider `Cc1cc(OCC(=O)N[C@H]2CC[C@H](CCN3CCc4ccc(CCC(F)(F)F)nc4CC3)CC2)no1` [I′-8], for which the Ki in series [1] was 0.071 nM; in series [2] ([3H]-Methylspiperone 1.2 nM), above 2300 nM.
Taken in the same sequence, the figures for `Cc1nnc(CC(=O)N[C@H]2CC[C@H](CCN3CCc4ccc(CCC(F)(F)F)nc4CC3)CC2)s1` [I′-12] were 0.29 nM and 820 nM.
`CN1Cc2c(C(=O)NC34CCC(CCN5CCc6nc(OCC(F)(F)F)sc6CC5)(CC3)CC4)cccc2C1=O` [II-2]: the Ki in series [1] was 0.079 nM; in series [2] ([3H]-Methylspiperone 1.2 nM), above 2200 nM.
With `CN1Cc2c(C(=O)NC34CCC(CCN5CCc6nc(OCC(F)F)sc6CC5)(CC3)CC4)cccc2C1=O` [II-10], the Ki was 0.5 nM in series [1] and above 2300 nM in series [2] ([3H]-Methylspiperone 1.2 nM).
The like results for `Cc1nnc(CC(=O)NC23CCC(CCN4CCc5nc(OCC(F)(F)F)sc5CC4)(CC2)CC3)o1` [II-5] were, in that order, 0.2 nM and 1300 nM.
`Cc1ncc(CC(=O)N[C@H]2CC[C@H](CCN3CCc4ccc(CCC(F)(F)F)nc4CC3)CC2)o1` [I′-10]: the Ki in series [1] came to 0.23 nM; in series [2] ([3H]-Methylspiperone 1.2 nM), 1100 nM.
As to `Cc1nnc(CC(=O)N[C@H]2CC[C@H](CCN3CCc4ccc(CCC(F)(F)F)nc4CC3)CC2)o1` [I′-3], the figures for the Ki in series [1] and in series [2] ([3H]-Methylspiperone 1.2 nM) were 0.18 nM and 1100 nM, respectively.
Regarding `Cc1ncc(CC(=O)N[C@H]2CC[C@H](CCN3CCc4ccc(O[C@H](C)C(F)(F)F)nc4CC3)CC2)cn1` [Example I-131], the results for the Ki in series [1] and in series [2] (setting [3]) were 0.35 nM and 410 nM, respectively.
